Assay results taken from US20180362993A1, “ELICITOR-DERIVED PEPTIDES AND USE THEREOF” (Plant Health Care, Inc., priority 2017, published 2018).
Values joined by “and” are separate entries in the source; they are usually repeats but may differ in a detail not shown here. Identical values can stand only once. Marks after values point to notes of the source that are not given here.

Experiments:
Format in all cases: in vivo
soy [1] = assay: Drought resistance in soy (foliar spray); settings: vs untreated control
Experimental: (§1) The effectiveness of peptide treatment in reducing drought stress was assessed in […]. 3.5 inch pots were filled with Sunshine #1 soil (SunGro Horticulture), fertilized with a 20-10-20 mixture. The soil was soaked and drained overnight. Seeds (soy, manually inspected to ensure uniform seed size) were planted at a depth of half inch for germination. Plants were grown in a greenhouse under 16 hour light days at >70° F. and 8 hour dark nights at >65° F. Prior to drought conditions, the plants were well-watered.
When the plants reached the growth stage when first trifoliate expanded, plants were culled to achieve a uniform height (abnormally large and small plants were removed). Plants were then randomly assigned to control (spray without peptide) or treatment (spray with peptide) groups and heights were measured. Peptide was made up in a solution of 0.2 μg/ml or 2μg/ml in distilled water+0.04% Tween-20, and applied as a fine mist from a spray bottle until the solution drips from the leaves. After the peptide solutions were dried, the plants were again randomized in a randomized complete block design. Cyclic drought stress was initiated after the peptide treatment. Plants were subjected to at least three drought cycles of drought stress (3-5 days of withholding water and 1 day irrigated with saturating amount of water) before harvesting.
(§2) The drought test phase ended after 2-3 weeks. At that time, the plant height was again measured and the growth rate was calculated as the difference between this and the previously-recorded height. The above-ground part portions of the plants were harvested and weighed to obtain fresh weight. The above-ground portion was also dried in an oven at 70° C. for 72 hours to obtain dry weight. All calculations were compared with matched untreated control plants.
The drought testing procedure was carried out in soy using a treatment of P12-2, P13-4, P13-5, P13-7, P13-3, P13-14, P13-2, and P13-15 (SEQ ID NOs: 6, 10, 11, 13, 9, 20, 8, and 21). Asterisks indicate statistical significance by P-value (*: P<0.1 and **: P<0.05)

corn [2] = assay: Drought resistance in corn (foliar spray); settings: corn, vs untreated control
Experimental: as §1, with “(either corn or soy,” for “(soy,”, “1” for “half”
When the plants reached the V1 stage, plants were culled to achieve a uniform height (abnormally large and small plants were removed). Plants were then randomly assigned to control (spray without peptide) or treatment (spray with peptide) groups and heights were measured. Peptide was made up in a solution of 0.2 μg/ml or 2μg/ml in distilled water+0.01% Tween-20, and applied as a fine mist from a spray bottle until the solution drips from the leaves. After the peptide solutions were dried, the plants were again randomized in a randomized complete block design. Drought stress was initiated after the peptide treatment. This was caused by maintaining the water level at 25-50% of the maximum capacity for water (capacity was decided as the weight of the pot filled with saturated soil minus the weight of the filled pot prior to adding water).
as §2
The drought testing procedure was carried out in corn using a treatment of P12, P13-10, P13-11, P13-12, P13-14, P13-4, and P13-15 (SEQ ID NOs: 5, 16, 17, 18, 20, 10, and 21). Asterisks indicate statistical significance by P-value (*: P<0.1 and **: P<0.05)

corn [3] = assay: Drought resistance in seed-coated corn; settings: for Drought tolerance activity in corn, result in words: corn seed treatment; for % Change Dry Weight / % Change Fresh Weight: vs mock
Experimental: The effectiveness of peptide treatment in reducing the effects of drought stress was assessed in corn using a seed treatment strategy. This strategy largely mirrors example 2, except that the seeds were coated with a peptide formulation rather than a foliar spray application.
Seeds were first sieved using mesh screens to a uniform size (21-23/64 inches). The seeds were then coated with a mixture of peptide, Unicoat™ seed coat polymer, and a minimal volume of water in a Hege 11 Liquid Seed Treater (Wintersteiger) according to manufacturer recommendations. Seeds were coated with one of the following: (i) 0.12 μg peptide/seed, (ii) […], or (iii) a ‘mock’ treatment that included no peptide. The amount of peptide per seed assumes complete transfer of the peptide to seed surfaces in the seed coating chamber. Losses during coating were not considered.
(§3) 3.5 inch pots were filled (approximately 0.2 L per pot) with Sunshine #1 mix (SunGro Horticulture), fertilized with 14-14-14 N,P,K Osmocote (Everris), and mixed for 20 minutes using a soil mixer M-5. Seeds were planted at a depth of 0.5 inch for germination. The pots were immediately irrigated by submergence then drained after about an hour. For each treatment group, 24 replicate seeds were planted. Plants were grown in a greenhouse under 16 hour light days at ˜75° F. and 8 hour dark nights at ˜65° F. Prior to drought conditions, the plants were well-watered.
Three days after planting, the plants were randomized using a complete block design and subjected to a cyclic drought stress. Drought stress was imposed by withholding water for 2-3 days until the majority of plants were under medium to severe water stress. The severity of the stress was determined by the weight of the pot and visual determination of leaf curling. Once drought stress was attained, the pots were watered to full saturation. Full Saturation (100% pot capacity) is defined as the weight of the pot filled with water-saturated soil minus the weight of the filled pot prior to adding water. Drought stress was imposed for a total of 18 days.
(§4) At the end of the experiment (18 days after initiation of drought stress), the plant was then harvested for fresh and dry weights. Individual plants were cut near the soil surface and weighed immediately (fresh weight). The plants were then placed into labeled brown paper bags and dried in a 70° C. oven for 72 hours. A dry weight was then obtained.
The following calculation was performed on the collected data: Fresh weight at harvest and dry weight at harvest for the plants grown from peptide-treated seeds were expressed as a % change relative to the ‘mock’ treated plants.

[4] = tested on: tobacco mosaic virus (TMV); assay: Induction of resistance to tobacco mosaic virus in tobacco (foliar spray); settings: for Effectiveness Covered (% decline in TMV lesions vs UTC): covered leaf (systemic response); for Effectiveness Uncovered (% decline in TMV lesions vs UTC): uncovered leaf (local response)
Experimental: Peptides were tested for the induction of resistance to tobacco mosaic virus (TMV) in tobacco. Briefly, three tobacco plants at 6-8 weeks old were selected per group (samples and controls). The bottom-most leaf of the plant was covered and the plant was sprayed with a solution of water (untreated control—UTC), peptide, or Proact (positive control). The spray was applied until the leaves were fully wetted, indicated by liquid dripping from the leaves. The plants were then allowed to dry and the leaf covering was removed.
Three days post-treatment, the previously-covered leaf and a leaf on the opposite side of the plant were then lightly dusted with diatomaceous earth and 20 ul of a 1.7 μg/ml solution of purified tobacco mosaic virus was applied. The TMV solution was then spread across the leaf surface by lightly rubbing solution and the diatomaceous earth across the surface of the leaves. Two minutes after inoculation, the diatomaceous earth was rinsed off the leaves with water. 3 days after TMV inoculation, the leaves were scored based on the number of TMV lesions observed. The leaf was also scored for signs of the hypersensitive response, including yellowing and wilting of the affected leaves.
Effectiveness described in Table 5 refers to the % decline in TMV lesions on treated vs UTC plants. A reduction of TMV on covered leaves indicates a systemic immune response in the plant while reduction on uncovered leaves indicates a local response. Asterisks indicate that the P-value derived from a T-test was <0.05.

soy [5] = assay: Drought resistance in seed-treated soy; settings: for % Change Dry Weight / % Change Fresh Weight: vs mock
Experimental: The effectiveness of peptide treatment in reducing drought stress was assessed in soy using a seed treatment strategy. This strategy largely mirrors examples 3 and 4.
Seeds were first sieved using mesh screens to a uniform size (14-17 mesh). The seeds were then coated with a mixture of peptide and Unicoat™ seed coat polymer in a Hege 11 Liquid Seed Treater (Wintersteiger) according to manufacturer recommendations. […]
as §3
Seven days after germination the heights of the plants were measured. This was determined as the distance between the soil surface and the shoot apical meristems (buds). The plants were randomized using a complete block design and subjected to a cyclic drought stress. Drought stress was imposed by withholding water for 3-4 days until the majority of plants were under medium to severe water stress. The severity of the stress was determined by the weight of the pot and visual determination of loss of turgor in the leaves (drooping). Once drought stress was attained, the pots were watered to full saturation. Full Saturation (100% pot capacity) is defined as the weight of the pot filled with water-saturated soil minus the weight of the filled pot prior to adding water. Drought stress was imposed for a total of 18 days.
as §4, with “the plant above the soil surface was then” for “the plant was then”, “then obtained. The following calculation was performed on the collected data: Fresh weight at harvest, and dry weight at harvest for the peptide-treated plants were expressed as a % change relative to the ‘mock’ treated plants.” for “then obtained.”

[6] = corn seed treatment 0.12 μg/seed
[7] = corn seed treatment 1.05 μg/seed

Row | Sequence | Dry Weight Increase (soy [1]; foliar spray 2 μg/ml) | Fresh Weight Increase (soy [1]; foliar spray 2 μg/ml) | Drought tolerance activity in corn, result in words (corn [3]) | % Change Dry Weight (corn [3]; [6]) | % Change Fresh Weight (corn [3]; [6]) | % Change Dry Weight (corn [3]; [7]) | % Change Fresh Weight (corn [3]; [7]) | Dry Weight Increase (soy [1]; foliar spray 0.2 μg/ml) | Fresh Weight Increase (soy [1]; foliar spray 0.2 μg/ml) | other results
1 | GDLQGSGASTQDTSGMSPMEQLMKIFADITQSLFGDQDG (P12-2 peptide) [Peptide P12-2] | 3.55% | 7.83** % |  |  |  |  |  |  |  | 
2 | GQTSGMSPMEQLMKIFADITQSLFG (P13-15 peptide) [Peptide P13-15] | 2.07% | 5.38* % |  |  |  |  |  |  |  | Dry Weight Increase (corn [2]; foliar spray 0.2 μg/ml): 6.21%; Fresh Weight Increase (corn [2]; foliar spray 0.2 μg/ml): 2.92%
3 | LEELEELLEIFEEIEEELFEE (P13-7 peptide) [Peptide P13-7] | 4.50* % | 5.80* % | preservation of activity | 4.77** % | 5.6* % |  |  |  |  | 
4 | LSPLEQLMKIFADITQSLFEEEE (P13-5 peptide) [Peptide P13-5] | 4.36% | 9.73** % | supported corn drought tolerance |  |  | 5.07* % | 5.66** % | 6.93** % | 12.23** % | 
5 | MSPMEQLMKIFADITQSLFEEEE (P13-4 peptide) [Peptide P13-4] |  |  |  |  |  |  |  | 4.45* % | 7.75** % | Dry Weight Increase (corn [2]; foliar spray 2 μg/ml): 0.06%; Fresh Weight Increase (corn [2]; foliar spray 2 μg/ml): −2.77%
6 | QTGDDSLSGAGQTSGMSPMEQLMKIFADITQSLFG (P13-14 peptide) [Peptide P13-14] |  |  |  | 3.77% | 9.11** % | 7.92** % | 11.83** % | −3.68** % | −2.86% | Dry Weight Increase (corn [2]; foliar spray 2 μg/ml): 2.48%; Fresh Weight Increase (corn [2]; foliar spray 2 μg/ml): 4.36* %
7 | QTGDDSLSGAGQTSGMSPMEQLMKIFADITQSLFGDQ (P13-13 peptide) [Peptide P13-13] |  |  |  |  |  |  |  |  |  | Effectiveness Covered (% decline in TMV lesions vs UTC) ([4]; 20 μg/ml spray): 38.5%; Effectiveness Uncovered (% decline in TMV lesions vs UTC) ([4]; 20 μg/ml spray): 36.6%
8 | QTGDDSLSGAGQTSGMSPMEQLMKIFADITQSLFGDQDG (P12 peptide) [Peptide P12] |  |  |  |  |  |  |  |  |  | Effectiveness Covered (% decline in TMV lesions vs UTC) ([4]; 10 μg/ml spray): 66* %; Effectiveness Uncovered (% decline in TMV lesions vs UTC) ([4]; 10 μg/ml spray): 53* %; Dry Weight Increase (corn [2]; foliar spray 2 μg/ml): 6.28** %; Fresh Weight Increase (corn [2]; foliar spray 2 μg/ml): 4.87* %
9 | SEEMSPMEQLMKIFADITQSLFEE (P13-36 peptide) [Peptide P13-36] |  |  | supported corn drought tolerance | 5.93** % | 10.60** % | 7.95** % | 12.38** % |  |  | % Change Dry Weight (soy [5]; soy seed treatment 0.9 μg/seed): −4.78%; % Change Fresh Weight (soy [5]; soy seed treatment 0.9 μg/seed): 1.46%
10 | SEQEEEMEEMEQLMEIFEEIEQELFE (P13-28 peptide) [Peptide P13-28] |  |  | preservation of activity | 8.52** % | 9.99** % | 6.04** % | 8.18** % |  |  | Result in the seed treated drought study for soy, in words (soy [5]; soy seed treatment): significant results; % Change Dry Weight (soy [5]; soy seed treatment 0.9 μg/seed): 10.35** %; % Change Fresh Weight (soy [5]; soy seed treatment 0.9 μg/seed): 14.35** %
11 | SQEEEMEPMEQLMEIFEEIEQELFG (P13-26 peptide) [Peptide P13-26] |  |  | preservation of activity | 4.74** % | 3.77* % | 5.92** % | 4.23* % |  |  | % Change Dry Weight (soy [5]; soy seed treatment 0.1 μg/seed): 3.40%; % Change Fresh Weight (soy [5]; soy seed treatment 0.1 μg/seed): 2.04%
12 | TSGLSPLEQLLKIFADITQSLFG (P13-2 peptide) [Peptide P13-2] | 14.54** % | 15.56** % |  |  |  | 0.38% | 3.67% | 8.70** % | 7.84** % | 
13 | TSGLSPLEQLLKIFAEITQSLFG (P13-3 peptide) [Peptide P13-3] | 2.54% and 6.07** % | 5.90** % and 13.61** % |  | 2.81% | 1.49% |  |  | 8.47** % | 11.43** % | 
